ChEMBL document CHEMBL3885861, “Open TG-GATES”

Species: Rattus norvegicus
Experiment: Open TG-GATES - Regimen: Single
Type: toxicity, organism-based, Sprague-Dawley
Parameters: regimen Single, gender Male, age 6 weeks
Conditions: in vivo, po, route gavage; for APTT / Bas / Eos / Fbg / Hb / Ht / Lym / MCH / MCHC / MCV / Mono / Neu / PT / Plat / Ret / WBC: tissue Blood; for KIDNEY_L / KIDNEY_R / KIDNEY_TOTAL: tissue Kidney; for LIVER: tissue Liver; for ALP / ALT / AST / BUN / CRE / Ca / DBIL / GLC / IP / K / LDH / Na / PL / RALB / TBIL / TC / TG / TP / gamma-GTP: tissue Plasma

With CN(C)CCCN1c2ccccc2CCc2ccc(Cl)cc21 [CLOMIPRAMINE] the APTT (10 mg/kg, 3 h, dose level Low) was 17.9 s, the Bas (10 mg/kg, 3 h, dose level Low) was 0.4% and the Eos (10 mg/kg, 3 h, dose level Low) was 1%. For the same molecule, the Fbg (10 mg/kg, 3 h, dose level Low) was 240 mg/dL, the Hb (10 mg/kg, 3 h, dose level Low) was 14 g/dL and the Ht (10 mg/kg, 3 h, dose level Low) was 43.3%. For the same molecule, the Lym (10 mg/kg, 3 h, dose level Low) was 81%, the MCH (10 mg/kg, 3 h, dose level Low) was 20.7 pg and the MCHC (10 mg/kg, 3 h, dose level Low) was 32.4%. It also gave an MCV (10 mg/kg, 3 h, dose level Low) of 63.9 fL, a Mono (10 mg/kg, 3 h, dose level Low) of 3.4% and a Neu (10 mg/kg, 3 h, dose level Low) of 13.8%. For the same molecule, the PT (10 mg/kg, 3 h, dose level Low) was 13.5 s, the Plat (10 mg/kg, 3 h, dose level Low) was 129 x10_4/uL and the Ret (10 mg/kg, 3 h, dose level Low) was 7.8%. For the same molecule, the WBC (10 mg/kg, 3 h, dose level Low) was 74.4 x10_2/uL, the KIDNEY_L (10 mg/kg, 3 h, dose level Low) was 1 g and the KIDNEY_R (10 mg/kg, 3 h, dose level Low) was 1 g. For the same molecule, the KIDNEY_TOTAL (10 mg/kg, 3 h, dose level Low) was 1.9 g, the LIVER (10 mg/kg, 3 h, dose level Low) was 10 g and the ALP (10 mg/kg, 3 h, dose level Low) was 1810.4 IU/L. It also gave an ALT (10 mg/kg, 3 h, dose level Low) of 41.2 IU/L, an AST (10 mg/kg, 3 h, dose level Low) of 75.8 IU/L and a BUN (10 mg/kg, 3 h, dose level Low) of 9.8 mg/dL. The CRE (10 mg/kg, 3 h, dose level Low) was 0.2 mg/dL, the Ca (10 mg/kg, 3 h, dose level Low) was 10.7 mg/dL and the DBIL (10 mg/kg, 3 h, dose level Low) was 0.01 mg/dL. The GLC (10 mg/kg, 3 h, dose level Low) was 189 mg/dL, the IP (10 mg/kg, 3 h, dose level Low) was 9 mg/dL and the K (10 mg/kg, 3 h, dose level Low) was 4.3 meq/L. The LDH (10 mg/kg, 3 h, dose level Low) was 123 IU/L, the Na (10 mg/kg, 3 h, dose level Low) was 140.6 meq/L and the PL (10 mg/kg, 3 h, dose level Low) was 148.6 mg/dL. It also gave an RALB (10 mg/kg, 3 h, dose level Low) of 2.5 g/dL, a TBIL (10 mg/kg, 3 h, dose level Low) of 0.074 mg/dL and a TC (10 mg/kg, 3 h, dose level Low) of 76.2 mg/dL. The TG (10 mg/kg, 3 h, dose level Low) was 78 mg/dL, the TP (10 mg/kg, 3 h, dose level Low) was 5.2 g/dL and the gamma-GTP (10 mg/kg, 3 h, dose level Low) was 1.2 IU/L. For the same molecule, the TERMINAL_BW (10 mg/kg, 6 h, dose level Low) was 215.1 g, the APTT (10 mg/kg, 6 h, dose level Low) was 17 s and the Bas (10 mg/kg, 6 h, dose level Low) was 0%. The Eos (10 mg/kg, 6 h, dose level Low) was 0.4%, the Fbg (10 mg/kg, 6 h, dose level Low) was 254.8 mg/dL and the Hb (10 mg/kg, 6 h, dose level Low) was 14 g/dL. For the same molecule, the Ht (10 mg/kg, 6 h, dose level Low) was 43.7%, the Lym (10 mg/kg, 6 h, dose level Low) was 79.6% and the MCH (10 mg/kg, 6 h, dose level Low) was 21 pg. The MCHC (10 mg/kg, 6 h, dose level Low) was 32.1%, the MCV (10 mg/kg, 6 h, dose level Low) was 65.5 fL and the Mono (10 mg/kg, 6 h, dose level Low) was 3%. For the same molecule, the Neu (10 mg/kg, 6 h, dose level Low) was 15.6%, the PT (10 mg/kg, 6 h, dose level Low) was 13.6 s and the Plat (10 mg/kg, 6 h, dose level Low) was 119.7 x10_4/uL. The Ret (10 mg/kg, 6 h, dose level Low) was 7.9%, the WBC (10 mg/kg, 6 h, dose level Low) was 81.1 x10_2/uL and the KIDNEY_L (10 mg/kg, 6 h, dose level Low) was 1 g. It also gave a KIDNEY_R (10 mg/kg, 6 h, dose level Low) of 1 g, a KIDNEY_TOTAL (10 mg/kg, 6 h, dose level Low) of 2 g and an LIVER (10 mg/kg, 6 h, dose level Low) of 9.3 g. For the same molecule, the ALP (10 mg/kg, 6 h, dose level Low) was 1661 IU/L, the ALT (10 mg/kg, 6 h, dose level Low) was 39.4 IU/L and the AST (10 mg/kg, 6 h, dose level Low) was 78.4 IU/L. For the same molecule, the BUN (10 mg/kg, 6 h, dose level Low) was 9.4 mg/dL, the CRE (10 mg/kg, 6 h, dose level Low) was 0.2 mg/dL and the Ca (10 mg/kg, 6 h, dose level Low) was 10.8 mg/dL. The DBIL (10 mg/kg, 6 h, dose level Low) was 0.01 mg/dL, the GLC (10 mg/kg, 6 h, dose level Low) was 189.8 mg/dL and the IP (10 mg/kg, 6 h, dose level Low) was 9.4 mg/dL. The K (10 mg/kg, 6 h, dose level Low) was 4.2 meq/L, the LDH (10 mg/kg, 6 h, dose level Low) was 93 IU/L and the Na (10 mg/kg, 6 h, dose level Low) was 140.8 meq/L. For the same molecule, the PL (10 mg/kg, 6 h, dose level Low) was 149 mg/dL, the RALB (10 mg/kg, 6 h, dose level Low) was 2.5 g/dL and the TBIL (10 mg/kg, 6 h, dose level Low) was 0.072 mg/dL. For the same molecule, the TC (10 mg/kg, 6 h, dose level Low) was 83.4 mg/dL, the TG (10 mg/kg, 6 h, dose level Low) was 52.2 mg/dL and the TP (10 mg/kg, 6 h, dose level Low) was 5.3 g/dL. It also gave a gamma-GTP (10 mg/kg, 6 h, dose level Low) of 1.4 IU/L, a TERMINAL_BW (10 mg/kg, 9 h, dose level Low) of 213 g and an APTT (10 mg/kg, 9 h, dose level Low) of 15.9 s. For the same molecule, the Bas (10 mg/kg, 9 h, dose level Low) was 0%, the Eos (10 mg/kg, 9 h, dose level Low) was 0.6% and the Fbg (10 mg/kg, 9 h, dose level Low) was 267.6 mg/dL. It also gave a Hb (10 mg/kg, 9 h, dose level Low) of 13.5 g/dL, a Ht (10 mg/kg, 9 h, dose level Low) of 41.8% and a Lym (10 mg/kg, 9 h, dose level Low) of 78.8%. It also gave an MCH (10 mg/kg, 9 h, dose level Low) of 20.9 pg, an MCHC (10 mg/kg, 9 h, dose level Low) of 32.2% and an MCV (10 mg/kg, 9 h, dose level Low) of 64.8 fL. It also gave a Mono (10 mg/kg, 9 h, dose level Low) of 2.2%, a Neu (10 mg/kg, 9 h, dose level Low) of 17.4% and a PT (10 mg/kg, 9 h, dose level Low) of 14.1 s. For the same molecule, the Plat (10 mg/kg, 9 h, dose level Low) was 130.4 x10_4/uL, the Ret (10 mg/kg, 9 h, dose level Low) was 8.4% and the WBC (10 mg/kg, 9 h, dose level Low) was 80 x10_2/uL. It also gave a KIDNEY_L (10 mg/kg, 9 h, dose level Low) of 1 g, a KIDNEY_R (10 mg/kg, 9 h, dose level Low) of 0.9 g and a KIDNEY_TOTAL (10 mg/kg, 9 h, dose level Low) of 1.9 g. The LIVER (10 mg/kg, 9 h, dose level Low) was 9 g, the ALP (10 mg/kg, 9 h, dose level Low) was 1512 IU/L and the ALT (10 mg/kg, 9 h, dose level Low) was 35.8 IU/L. It also gave an AST (10 mg/kg, 9 h, dose level Low) of 67.8 IU/L, a BUN (10 mg/kg, 9 h, dose level Low) of 10.4 mg/dL and a CRE (10 mg/kg, 9 h, dose level Low) of 0.2 mg/dL. It also gave a Ca (10 mg/kg, 9 h, dose level Low) of 10.7 mg/dL, a DBIL (10 mg/kg, 9 h, dose level Low) of 0.01 mg/dL and a GLC (10 mg/kg, 9 h, dose level Low) of 187.8 mg/dL. The IP (10 mg/kg, 9 h, dose level Low) was 10.2 mg/dL, the K (10 mg/kg, 9 h, dose level Low) was 4 meq/L and the LDH (10 mg/kg, 9 h, dose level Low) was 84.2 IU/L. It also gave a Na (10 mg/kg, 9 h, dose level Low) of 140.2 meq/L, a PL (10 mg/kg, 9 h, dose level Low) of 138.2 mg/dL and an RALB (10 mg/kg, 9 h, dose level Low) of 2.5 g/dL. For the same molecule, the TBIL (10 mg/kg, 9 h, dose level Low) was 0.064 mg/dL, the TC (10 mg/kg, 9 h, dose level Low) was 75.2 mg/dL and the TG (10 mg/kg, 9 h, dose level Low) was 74 mg/dL. It also gave a TP (10 mg/kg, 9 h, dose level Low) of 5.3 g/dL, a gamma-GTP (10 mg/kg, 9 h, dose level Low) of 1.4 IU/L and a TERMINAL_BW (10 mg/kg, 24 h, dose level Low) of 228.6 g. The APTT (10 mg/kg, 24 h, dose level Low) was 17.7 s, the Bas (10 mg/kg, 24 h, dose level Low) was 0% and the Eos (10 mg/kg, 24 h, dose level Low) was 1%. It also gave a Fbg (10 mg/kg, 24 h, dose level Low) of 249 mg/dL, a Hb (10 mg/kg, 24 h, dose level Low) of 13.6 g/dL and a Ht (10 mg/kg, 24 h, dose level Low) of 42.5%. The Lym (10 mg/kg, 24 h, dose level Low) was 77%, the MCH (10 mg/kg, 24 h, dose level Low) was 20.8 pg and the MCHC (10 mg/kg, 24 h, dose level Low) was 32.1%. The MCV (10 mg/kg, 24 h, dose level Low) was 65 fL, the Mono (10 mg/kg, 24 h, dose level Low) was 3% and the Neu (10 mg/kg, 24 h, dose level Low) was 17.6%. It also gave a PT (10 mg/kg, 24 h, dose level Low) of 13.7 s, a Plat (10 mg/kg, 24 h, dose level Low) of 124 x10_4/uL and a Ret (10 mg/kg, 24 h, dose level Low) of 7.7%. It also gave a WBC (10 mg/kg, 24 h, dose level Low) of 85.9 x10_2/uL, a KIDNEY_L (10 mg/kg, 24 h, dose level Low) of 1.1 g and a KIDNEY_R (10 mg/kg, 24 h, dose level Low) of 1 g. For the same molecule, the KIDNEY_TOTAL (10 mg/kg, 24 h, dose level Low) was 2.1 g, the ALP (10 mg/kg, 24 h, dose level Low) was 1661.4 IU/L and the ALT (10 mg/kg, 24 h, dose level Low) was 42.6 IU/L. It also gave an AST (10 mg/kg, 24 h, dose level Low) of 74.4 IU/L, a BUN (10 mg/kg, 24 h, dose level Low) of 13 mg/dL and a CRE (10 mg/kg, 24 h, dose level Low) of 0.2 mg/dL. It also gave a Ca (10 mg/kg, 24 h, dose level Low) of 10.8 mg/dL, a DBIL (10 mg/kg, 24 h, dose level Low) of 0.012 mg/dL and a GLC (10 mg/kg, 24 h, dose level Low) of 179.8 mg/dL. For the same molecule, the IP (10 mg/kg, 24 h, dose level Low) was 8.1 mg/dL, the K (10 mg/kg, 24 h, dose level Low) was 4 meq/L and the LDH (10 mg/kg, 24 h, dose level Low) was 88 IU/L. It also gave a Na (10 mg/kg, 24 h, dose level Low) of 141.8 meq/L, a PL (10 mg/kg, 24 h, dose level Low) of 144.4 mg/dL and an RALB (10 mg/kg, 24 h, dose level Low) of 2.6 g/dL. The TBIL (10 mg/kg, 24 h, dose level Low) was 0.062 mg/dL, the TC (10 mg/kg, 24 h, dose level Low) was 73.8 mg/dL and the TG (10 mg/kg, 24 h, dose level Low) was 91.6 mg/dL. For the same molecule, the TP (10 mg/kg, 24 h, dose level Low) was 5.4 g/dL, the gamma-GTP (10 mg/kg, 24 h, dose level Low) was 1 IU/L and the TERMINAL_BW (30 mg/kg, 3 h, dose level Middle) was 217.9 g.
